Experimental data from US9695155B2, “Herbicidal substituted pyrimidinyloxy benzene compounds” (E. I. DU PONT DE NEMOURS AND COMPANY, priority 2013, dated 2017).

Tests used:
[1] = system: Russian thistle; assay: Test D preemergence; type: in vivo, Salsola kali; parameters: key: 0 = no effect, 100 = complete control
Text: Seeds of plant species selected from bluegrass (annual bluegrass, Poa annua), blackgrass (Alopecurus myosuroides), canarygrass (littleseed canarygrass, Phalaris minor), chickweed (common chickweed, Stellaria media), galium (catchweed bedstraw, Galium aparine), bromegrass, downy (downy bromegrass, Bromus tectorum), field poppy (Papaver rhoeas), field violet (Viola arvensis), green foxtail (Setaria viridis), deadnettle (henbit deadnettle, Lamium amplexicaule), Italian ryegrass (Lolium multiflorum), kochia (Kochia scoparia), lambsquarters (Chenopodium album), oilseed rape (Brassica napus), pigweed (Amaranthus retroflexus), chamomile (scentless chamomile, Matricaria inodora), Russian thistle (Salsola kali), speedwell (bird's-eye speedwell, Veronica persica), spring barley (Hordeum vulgare), spring wheat (Triticum aestivum), wild buckwheat (Polygonum convolvulus), wild mustard (Sinapis arvensis), wild oat (Avena fatua), wild radish (Raphanus raphanistrum), windgrass (Apera spica-venti), winter barley (Hordeum vulgare), and winter wheat (Triticum aestivum) were planted into a silt loam soil and treated preemergence with test chemicals formulated in a non-phytotoxic solvent mixture which included a surfactant.
At the same time, these species were planted in pots containing Redi-Earth® planting medium (Scotts Company, 14111 Scottslawn Road, Marysville, Ohio 43041) comprising spaghnum peat moss, vermiculite, wetting agent and starter nutrients and treated with postemergence applications of the test chemicals formulated in the same manner. Plants ranged in height from 2 to 18 cm (1- to 4-leaf stage). Treated plants and controls were maintained in a controlled growth environment for 7 to 21 days after which time all species were compared to controls and visually evaluated. Plant response ratings, summarized in Table D, are based on a scale of 0 to 100 where 0 is no effect and 100 is complete control. A dash (-) response means no test result.

[2] = system: cupgrass, woolly; assay: Test C postemergence; type: in vivo, Eriochloa villosa; conditions: for Plant response rating (0 to 100), Cupgrass, Woolly: postemergence; for Plant response rating, Cupgrass, Woolly: Postemergence, scale 0 to 100 (0 no effect, 100 complete control)
Text: (§1) Seeds of plant species selected from blackgrass (Alopecurus myosuroides), Italian ryegrass (Lolium multiflorum), wheat, winter (winter wheat, Triticum aestivum), galium (catchweed bedstraw, Galium aparine), corn (Zea mays), large (Lg) crabgrass (Digitaria sanguinalis), giant foxtail (Setaria faberii), johnsongrass (Sorghum halepense), lambsquarters (Chenopodium album), morningglory (Ipomoea coccinea), yellow nutsedge (Cyperus esculentus), pigweed (Amaranthus retroflexus), ragweed (common ragweed, Ambrosia elatior), soybean (Glycine max), barnyardgrass (Echinochloa crus-galli), oilseed rape (Brassica napus), waterhemp (common waterhemp, Amaranthus rudis), kochia (Kochia scoparia), wild oat (Avena fatua), surinam grass (Brachiaria decumbens), foxtail, green (green foxtail, Setaria viridis), goosegrass (Eleusine indica), bromegrass, downy (downy bromegrass, Bromus tectorum), nightshade (eastern black nightshade, Solanum ptycanthum), cocklebur (common cocklebur, Xanthium strumarium), cupgrass, woolly (woolly cupgrass, Eriochloa villosa), bermudagrass (Cynodon dactylon), sunflower, (common oilseed sunflower, Helianthus annuus), Russian thistle (Salsola kali), and velvetleaf (Abutilon theophrasti) were planted into a blend of loam soil and sand and treated preemergence with test chemicals formulated in a non-phytotoxic solvent mixture which included a surfactant.
(§2) At the same time, plants selected from these crop and weed species and also barley, winter (winter barley, Hordeum vulgare), windgrass (Apera spica-venti), chickweed (common chickweed, Stellaria media), deadnettle (henbit deadnettle, Lamium amplexicaule), and canarygrass (littleseed canarygrass, Phalaris minor) were planted in pots containing Redi-Earth® planting medium (Scotts Company, 14111 Scottslawn Road, Marysville, Ohio 43041) comprising spaghnum peat moss, vermiculite, wetting agent and starter nutrients and treated with postemergence applications of test chemicals formulated in the same manner. Plants ranged in height from 2 to 18 cm (1- to 4-leaf stage) for postemergence treatments. Treated plants and controls were maintained in a greenhouse for 13 to 15 days, after which time all species were compared to controls and visually evaluated. Plant response ratings, summarized in Table C, are based on a scale of 0 to 100 where 0 is no effect and 100 is complete control. A dash (-) response means no test result.

[3] = system: bermudagrass; assay: Test C postemergence; type: in vivo, Cynodon dactylon; conditions: for Plant response rating (0 to 100), Bermudagrass: postemergence; for Plant response rating, Bermudagrass: Postemergence, scale 0 to 100 (0 no effect, 100 complete control)
Text: as §1, §2

[4] = system: barley, winter; assay: Test C postemergence; type: in vivo, Hordeum vulgare; conditions: for Plant response rating (0 to 100), Barley: postemergence; for Plant response rating, Barley: Postemergence, scale 0 to 100 (0 no effect, 100 complete control)
Text: as §1, §2

[5] = system: canarygrass; assay: Test C postemergence; type: in vivo, Phalaris minor; conditions: for Plant response rating (0 to 100), Canarygrass: postemergence; for Plant response rating, Canarygrass: Postemergence, scale 0 to 100 (0 no effect, 100 complete control)
Text: as §1, §2

[6] = system: cocklebur; assay: Test C postemergence; type: in vivo, Xanthium strumarium; conditions: for Plant response rating (0 to 100), Cocklebur: postemergence; for Plant response rating, Cocklebur: Postemergence, scale 0 to 100 (0 no effect, 100 complete control)
Text: as §1, §2

[7] = system: bromegrass, downy; assay: Test C postemergence; type: in vivo, Bromus tectorum; conditions: for Plant response rating (0 to 100), Bromegrass, Downy: postemergence; for Plant response rating, Bromegrass, Downy: Postemergence, scale 0 to 100 (0 no effect, 100 complete control)
Text: as §1, §2

[8] = 31 g ai/ha, scale 0 (no effect) to 100 (complete control)

Clc1cnc(Oc2ccccc2-n2cc(Cl)cn2)nc1 [Compound 3]
Plant response rating, Russian Thistle ([1]; 16 g ai/ha, scale 0 (no effect) to 100 (complete control)): 0
Plant response rating, Russian Thistle [1, 8]: 0
Plant response rating, Russian Thistle ([1]; 62 g ai/ha, scale 0-100): 30
Plant response rating, Russian Thistle ([1]; 125 g ai/ha, scale 0-100): 40
Plant response rating, Russian Thistle ([1]; 250 g ai/ha, scale 0-100): 40

Fc1cnc(Oc2ccccc2-n2cc(Br)cn2)nc1 [Compound 10, 2-[2-(4-bromo-1H-pyrazol-1-yl)phenoxy]-5-fluoropyrimidine]
Plant response rating (0 to 100), Cupgrass, Woolly ([2]; 125 g ai/ha): 5
Plant response rating (0 to 100), Cupgrass, Woolly ([2]; 250 g ai/ha): 15
Plant response rating, Cupgrass, Woolly ([2]; 31 g ai/ha, 13 to 15 days): 0
Plant response rating, Cupgrass, Woolly ([2]; 62 g ai/ha): 5
Plant response rating (0 to 100), Bermudagrass ([3]; 125 g ai/ha): 5
Plant response rating (0 to 100), Bermudagrass ([3]; 250 g ai/ha): 50
Plant response rating, Bermudagrass ([3]; 31 g ai/ha, 13 to 15 days): 0
Plant response rating, Bermudagrass ([3]; 62 g ai/ha): 5
Plant response rating (0 to 100), Barley ([4]; 125 g ai/ha): 5
Plant response rating (0 to 100), Barley ([4]; 250 g ai/ha): 10
Plant response rating, Barley ([4]; 31 g ai/ha, 13 to 15 days): 0
Plant response rating, Barley ([4]; 62 g ai/ha): 5
Plant response rating (0 to 100), Canarygrass ([5]; 125 g ai/ha): 25
Plant response rating (0 to 100), Canarygrass ([5]; 250 g ai/ha): 40
Plant response rating, Canarygrass ([5]; 31 g ai/ha, 13 to 15 days): 0
Plant response rating, Canarygrass ([5]; 62 g ai/ha): 0
Plant response rating (0 to 100), Cocklebur ([6]; 125 g ai/ha): 55
Plant response rating (0 to 100), Cocklebur ([6]; 250 g ai/ha): 100
Plant response rating, Cocklebur ([6]; 31 g ai/ha, 13 to 15 days): 45
Plant response rating, Cocklebur ([6]; 62 g ai/ha): 55
Plant response rating (0 to 100), Bromegrass, Downy ([7]; 125 g ai/ha): 10
Plant response rating (0 to 100), Bromegrass, Downy ([7]; 250 g ai/ha): 15
Plant response rating, Bromegrass, Downy ([7]; 31 g ai/ha, 13 to 15 days): 5
Plant response rating, Bromegrass, Downy ([7]; 62 g ai/ha): 5

N#Cc1cccc(Oc2ncc(Cl)cn2)c1-n1cc(-n2ccc(C(F)(F)F)n2)cn1 [Compound 284]
Plant response rating, Russian Thistle [1, 8]: 0
Plant response rating, Russian Thistle ([1]; 125 g ai/ha, scale 0-100): 20
Plant response rating, Russian Thistle ([1]; 250 g ai/ha, scale 0-100): 30
